Laboratory results from patent US8541588B2, “Sulfonamide derivatives” (Pfizer Limited, priority 2009, dated 2013).

What follows are compounds tested against T1, Nav1.7 (or SCN9A) channel; HEK cells stably transfected with hSCN9A (Homo sapiens, UniProt Q15858) (assay: Nav1.7 block, PatchXpress 7000 automated whole-cell voltage clamp, estimated IC50 (EIC50)). Conditions: estimated IC50; hSCN9A HEK cells, PatchXpress platform; Examples 815-1040.
T1 construct: expressed in transfected cells
T1 sequence (Q15858 whole entry): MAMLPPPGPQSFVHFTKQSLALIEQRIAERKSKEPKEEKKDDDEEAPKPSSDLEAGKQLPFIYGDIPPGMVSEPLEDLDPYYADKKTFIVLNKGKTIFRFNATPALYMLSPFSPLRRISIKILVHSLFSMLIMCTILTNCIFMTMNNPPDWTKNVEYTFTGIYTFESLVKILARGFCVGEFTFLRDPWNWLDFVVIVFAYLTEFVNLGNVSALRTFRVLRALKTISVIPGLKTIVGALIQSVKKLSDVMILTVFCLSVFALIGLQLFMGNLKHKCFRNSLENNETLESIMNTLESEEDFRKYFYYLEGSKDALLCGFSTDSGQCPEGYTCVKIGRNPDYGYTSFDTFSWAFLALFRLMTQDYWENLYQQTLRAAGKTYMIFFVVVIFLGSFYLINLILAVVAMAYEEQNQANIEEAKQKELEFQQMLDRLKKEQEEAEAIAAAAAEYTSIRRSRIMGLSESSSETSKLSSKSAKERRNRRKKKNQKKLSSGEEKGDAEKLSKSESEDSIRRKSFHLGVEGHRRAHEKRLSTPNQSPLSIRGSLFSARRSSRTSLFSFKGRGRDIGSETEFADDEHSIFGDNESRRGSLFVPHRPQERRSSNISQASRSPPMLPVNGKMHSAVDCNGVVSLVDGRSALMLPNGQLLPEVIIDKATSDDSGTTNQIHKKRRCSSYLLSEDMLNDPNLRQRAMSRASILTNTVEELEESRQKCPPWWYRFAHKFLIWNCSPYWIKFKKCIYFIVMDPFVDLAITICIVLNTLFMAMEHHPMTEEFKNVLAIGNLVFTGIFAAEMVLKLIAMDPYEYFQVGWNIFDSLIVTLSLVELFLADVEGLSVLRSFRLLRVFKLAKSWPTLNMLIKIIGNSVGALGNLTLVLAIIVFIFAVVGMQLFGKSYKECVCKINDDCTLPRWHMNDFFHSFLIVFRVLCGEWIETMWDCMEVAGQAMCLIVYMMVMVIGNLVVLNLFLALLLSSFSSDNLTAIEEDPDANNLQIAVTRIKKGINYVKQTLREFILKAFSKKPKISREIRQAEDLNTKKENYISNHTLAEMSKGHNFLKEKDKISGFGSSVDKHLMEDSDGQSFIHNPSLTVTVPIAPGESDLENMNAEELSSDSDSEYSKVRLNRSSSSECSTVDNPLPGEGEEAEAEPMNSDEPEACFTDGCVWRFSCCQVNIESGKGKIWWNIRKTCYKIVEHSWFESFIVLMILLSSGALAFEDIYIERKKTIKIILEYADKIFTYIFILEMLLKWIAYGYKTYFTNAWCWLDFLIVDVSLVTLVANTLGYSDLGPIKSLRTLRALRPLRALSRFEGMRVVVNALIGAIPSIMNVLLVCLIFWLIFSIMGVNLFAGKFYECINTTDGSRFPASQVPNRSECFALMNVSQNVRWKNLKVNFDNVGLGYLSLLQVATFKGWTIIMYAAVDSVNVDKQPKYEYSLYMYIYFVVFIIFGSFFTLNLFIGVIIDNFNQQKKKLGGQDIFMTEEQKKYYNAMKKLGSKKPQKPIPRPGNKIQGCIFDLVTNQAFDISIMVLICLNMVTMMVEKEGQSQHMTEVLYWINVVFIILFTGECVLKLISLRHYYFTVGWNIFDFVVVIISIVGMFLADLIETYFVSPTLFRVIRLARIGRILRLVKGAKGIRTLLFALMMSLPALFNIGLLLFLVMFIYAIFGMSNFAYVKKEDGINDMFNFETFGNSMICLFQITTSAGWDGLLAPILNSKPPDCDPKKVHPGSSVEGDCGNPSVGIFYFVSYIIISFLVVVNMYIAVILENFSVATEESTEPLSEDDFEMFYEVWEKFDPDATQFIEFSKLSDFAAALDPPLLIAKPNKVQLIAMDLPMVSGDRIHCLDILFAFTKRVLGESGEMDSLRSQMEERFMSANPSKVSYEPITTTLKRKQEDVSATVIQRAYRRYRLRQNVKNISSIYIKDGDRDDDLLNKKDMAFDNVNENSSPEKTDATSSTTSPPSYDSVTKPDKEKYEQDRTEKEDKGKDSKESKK
Assay type: cell-based
Compound O=S(=O)(Nc1ncns1)c1ccc(Oc2ccc(Cl)cc2C2CCOCC2)c(F)c1 [Example 825, 4-[4-chloro-2-(tetrahydro-2H-pyran-4-yl)phenoxy]-3-fluoro-N-1,2,4-thiadiazol-5-ylbenzenesulfonamide] has an IC50 of 0.19 µM. With N#Cc1cc(S(=O)(=O)Nc2ncns2)ccc1Oc1ccc(F)cc1-c1cc(N)n[nH]1 [Example 826, 4-[2-(3-amino-1H-pyrazol-5-yl)-4-fluorophenoxy]-3-cyano-N-1,2,4-thiadiazol-5-ylbenzenesulfonamide] the IC50 was 0.3 µM. O=S(=O)(Nc1ncns1)c1ccc(Oc2ccc(OC(F)(F)F)cc2-c2ccn[nH]2)c(F)c1 [Example 829, 3-fluoro-4-[2-(1H-pyrazol-5-yl)-4-(trifluoromethoxy)phenoxy]-N-1,2,4-thiadiazol-5-ylbenzenesulfonamide] showed an IC50 of 0.034 µM. For Nc1cccc(-c2cc(OC(F)(F)F)ccc2Oc2cc(F)c(S(=O)(=O)Nc3ncns3)cc2F)n1 [Example 830, 4-[2-(6-aminopyridin-2-yl)-4-(trifluoromethoxy)phenoxy]-2,5-difluoro-N-1,2,4-thiadiazol-5-ylbenzenesulfonamide], the IC50 was 0.023 µM. With O=S(=O)(Nc1nncs1)c1cc(Cl)c(Oc2ccc(Cl)cc2-c2cccc(CN3CCC3)n2)cc1F [Example 831, 4-{2-[6-(azetidin-1-ylmethyl)pyridin-2-yl]-4-chlorophenoxy}-5-chloro-2-fluoro-N-1,3,4-thiadiazol-2-ylbenzenesulfonamide] the IC50 was 0.063 µM. With N#Cc1cc(S(=O)(=O)Nc2nncs2)ccc1Oc1ccc(Cl)cc1-c1ccnnc1 [Example 832, 4-(4-chloro-2-pyridazin-4-ylphenoxy)-3-cyano-N-1,3,4-thiadiazol-2-ylbenzenesulfonamide] the IC50 was 0.42 µM. O=S(=O)(Nc1nncs1)c1cc(F)c(Oc2ccc(Cl)cc2-c2ccnc(N3CCNCC3)c2)cc1F [Example 833, 4-[4-chloro-2-(2-piperazin-1-ylpyridin-4-yl)phenoxy]-2,5-difluoro-N-1,3,4-thiadiazol-2-ylbenzenesulfonamide] gave an IC50 of 0.0059 µM. N#Cc1cc(S(=O)(=O)Nc2cscn2)ccc1Oc1ccc(Cl)cc1-c1ccnc(N2CCNCC2)c1 [Example 834, 4-[4-chloro-2-(2-piperazin-1-ylpyridin-4-yl)phenoxy]-3-cyano-N-1,3-thiazol-4-ylbenzenesulfonamide] was tested, and the IC50 was 0.0039 µM. N#Cc1cc(S(=O)(=O)Nc2nncs2)ccc1Oc1ccc(Cl)cc1-c1ccnc(N2CCNCC2)c1 [Example 835, 4-[4-chloro-2-(2-piperazin-1-ylpyridin-4-yl)phenoxy]-3-cyano-N-1,3,4-thiadiazol-2-ylbenzenesulfonamide] showed an IC50 of 0.0021 µM. N#Cc1cc(S(=O)(=O)Nc2ncns2)ccc1Oc1ccc(Cl)cc1C1CCOCC1 [Example 836, 4-[4-chloro-2-(tetrahydro-2H-pyran-4-yl)phenoxy]-3-cyano-N-1,2,4-thiadiazol-5-ylbenzenesulfonamide] was tested, and the IC50 was 0.04 µM. With O=S(=O)(Nc1ncns1)c1cc(F)c(Oc2ccc(OC(F)F)cc2-c2cn[nH]c2)cc1F [Example 837, 4-[4-(difluoromethoxy)-2-(1H-pyrazol-4-yl)phenoxy]-2,5-difluoro-N-1,2,4-thiadiazol-5-ylbenzenesulfonamide] the IC50 was 0.0058 µM. O=S(=O)(Nc1ncns1)c1cc(F)c(Oc2ccc(Cl)cc2-c2ccnc(CN3CCC3)c2)cc1F [Example 838, 4-{2-[2-(azetidin-1-ylmethyl)pyridin-4-yl]-4-chlorophenoxy}-2,5-difluoro-N-1,2,4-thiadiazol-5-ylbenzenesulfonamide] was tested, and the IC50 was 0.0018 µM. Work on N#Cc1cc(S(=O)(=O)Nc2nncs2)ccc1Oc1ccc(Cl)cc1-c1cn[nH]c1 [Example 839, 4-[4-chloro-2-(1H-pyrazol-4-yl)phenoxy]-3-cyano-N-1,3,4-thiadiazol-2-ylbenzenesulfonamide] yielded an IC50 of 0.13 µM. Nc1cc(-c2cc(F)ccc2Oc2cc(F)c(S(=O)(=O)Nc3ncns3)cc2Cl)[nH]n1 [Example 840, 4-[2-(3-amino-1H-pyrazol-5-yl)-4-fluorophenoxy]-5-chloro-2-fluoro-N-1,2,4-thiadiazol-5-ylbenzenesulfonamide] gave an IC50 of 0.052 µM.
